{"source": "patent US12377077B2", "about": "“Methods and formulations to treat mitochondrial dysfunction” (The Board of Trustees of the Leland Stanford Junior …, priority 2018, dated 2025)", "key": {"CI-deficient fibroblasts": {"tested_on": "CI-deficient fibroblasts", "assay": "Cellular morphology by phase-contrast microscopy", "assay_type": "cell-based, human", "conditions": "vs untreated", "source_text": "(§1) Fibroblasts in tissue culture were visualized by phase-contrast microscopy with a Leica DM IRB microscope at ×10 magnification, and images were taken with the Hamamatsu ORCA-ER camera."}, "[1]": {"tested_on": "COX10-deficient fibroblasts", "assay": "Cellular morphology by phase-contrast microscopy", "assay_type": "cell-based, human", "conditions": "vs untreated", "source_text": "as §1"}, "[2]": {"tested_on": "NGLY1 deficient fibroblasts", "assay": "Cellular morphology by phase-contrast microscopy", "assay_type": "cell-based, human", "conditions": "NGLY-1 deficient fibroblasts; vs untreated", "source_text": "as §1"}, "[3]": {"tested_on": "POLG-deficient fibroblasts", "assay": "Cellular morphology by phase-contrast microscopy", "assay_type": "cell-based, human", "conditions": "vs untreated", "source_text": "as §1"}, "[4]": {"tested_on": "SURF1-deficient fibroblasts", "assay": "Cellular morphology by phase-contrast microscopy", "assay_type": "cell-based, human", "conditions": "vs DMSO", "source_text": "as §1"}, "pAMPK [5]": {"tested_on": "pAMPK", "assay": "pAMPK western blot after siRNA knockdown of PRKAA1 in COX10 deficient fibroblasts", "assay_type": "cell-based, human", "conditions": "siAMPK+PT1 compared to siCNT+PT1", "experimental": "Methods: Western blotting was performed to identify pAMPK levels in cells treated with PT1. Cells were lysed with RIPA buffer supplemented with Na-Orthovanadate, PMSF, and Protease Inhibitor cocktail. Whole cell extracts were fractionated by SDS-PAGE and transferred to a polyvinylidene difluoride membrane using a transfer apparatus according to the manufacturer's protocols (Bio-Rad). After incubation with 5% nonfat milk in TBST (10 mM Tris, pH 8.0, 150 mM NaCl, 0.5% Tween 20) for 60 min, the membrane was washed once with TBST and incubated with antibodies against AMPK (1:1,000), pAMPK (1:1,000), actin (1:10,000) at 4° C. overnight. […]\nTo test whether the cellular response to PT1 is a result of AMPK activation itself, or is merely a result of nonspecific interactions, an siRNA knockdown strategy was used. siRNA for PRKAA1 (s101) and a negative control (Life Technologies) were incubated with Hiperfect reagent (Qiagen) in media containing DMEM, 1% Penicillin-Streptomycin (10,000 U/mL) (Life Technologies), 1% glutaMAX (Life Technologies) but no serum and allowed to complex for 10 min at room temperature. […] At the end of the incubation period, the cells were analyzed for levels of AMPK and pAMPK by western blot analysis (see protocol above) or incubated for six additional days with PT1 (or DMSO as untreated control) and assessed for viability by Calcein AM. […]"}, "[6]": {"tested_on": "COX10 deficient fibroblasts", "assay": "Cell viability (Calcein AM) in siRNA knockdown study", "assay_type": "cell-based, human", "conditions": "PT1 alone and siCNT+PT1 vs DMSO and siAMPK+PT1; FIG. 4B", "experimental": "Methods: Cell growth was measured by a fluorometric method using Calcein AM (Anaspec). Mitochondrial stressor media was removed, wells washed with PBS and then incubated with 500 ul/well of 800 nM Calcein AM in PBS for 30 min at 37 C, 5% CO2. Cell viability was measured by values obtained using a 485 nm excitation with the Flouroskan Ascent Microplate Fluorometer (Thermo Scientific).\nTo test whether the cellular response to PT1 is a result of AMPK activation itself, or is merely a result of nonspecific interactions, an siRNA knockdown strategy was used. siRNA for PRKAA1 (s101) and a negative control (Life Technologies) were incubated with Hiperfect reagent (Qiagen) in media containing DMEM, 1% Penicillin-Streptomycin (10,000 U/mL) (Life Technologies), 1% glutaMAX (Life Technologies) but no serum and allowed to complex for 10 min at room temperature. […] At the end of the incubation period, the cells were analyzed for levels of AMPK and pAMPK by western blot analysis (see protocol above) or incubated for six additional days with PT1 (or DMSO as untreated control) and assessed for viability by Calcein AM. COX10-deficient fibroblasts were treated with PT1 and either siAMPK or siCNT, and responses were evaluated for pAMPK protein expression by western blotting (FIG. 4A), cell viability by Calcein AM fluorescence assay (FIG. 4B), and cell morphology by phase contrast microscopy (FIGS. 4C-4F)"}, "pAMPK [7]": {"tested_on": "pAMPK", "assay": "pAMPK western blot time course in SURF1 deficient fibroblasts", "assay_type": "cell-based, human", "experimental": "Methods: Western blotting was performed to identify pAMPK levels in cells treated with PT1. Cells were lysed with RIPA buffer supplemented with Na-Orthovanadate, PMSF, and Protease Inhibitor cocktail. Whole cell extracts were fractionated by SDS-PAGE and transferred to a polyvinylidene difluoride membrane using a transfer apparatus according to the manufacturer's protocols (Bio-Rad). After incubation with 5% nonfat milk in TBST (10 mM Tris, pH 8.0, 150 mM NaCl, 0.5% Tween 20) for 60 min, the membrane was washed once with TBST and incubated with antibodies against AMPK (1:1,000), pAMPK (1:1,000), actin (1:10,000) at 4° C. overnight. Membranes were washed three times for 5 min and incubated with a 1:10,000 dilution of horseradish peroxidase-conjugated anti-mouse or anti-rabbit antibodies for 2 h. Blots were washed with TBST three times and developed with the ECL system (Thermo Scientific) according to the manufacturer's protocols."}, "[8]": {"tested_on": "NGLY1 deficient fibroblasts", "assay": "Oxygen consumption rate (OCR), XF96 extracellular flux analyzer", "assay_type": "cell-based, human", "conditions": "PT1 vs DMSO, FIG. 6C", "experimental": "Methods: Oxygen consumption rate (OCR) was measured using an XF96 extracellular flux analyzer (Seahorse Biosciences). Fibroblasts were seeded at 10×10^3 cell/well in 100 ul media containing 8.3 mM glucose and supplemented with 10% fetal bovine serum (FBS) (Fisher Scientific), 1% Penicillin-Streptomycin (10,000 U/mL)(Life Technologies), 1% glutaMAX (Life Technologies), 1% uridine (5 mg/ml) and 1% pyruvate (11 mg/ml) on an XF 96 well plate at 37° C., 5% CO2. The following day the medium was replaced with the mitochondrial stressor media (details above) with or without PT1, A-769662, and AICAR. After 48 hours the stressor media was replaced with 175 μl unbuffered XF base DMEM medium (Fisher Scientific) with the same constituents as the mitochondrial stressor medium and incubated at 37° C. for 30 min for equilibrium before the measurements. OCR Baseline measurements were measured three times, once every five minutes. After the experiment, cell content was estimated by Calcein AM fluorescence intensity (FI) and OCR was calculated as OCR divided by FI."}, "[9]": {"tested_on": "NGLY1 deficient fibroblasts", "assay": "ATP levels, CellTiter-Glo ATP Assay", "assay_type": "cell-based, human", "conditions": "PT1 48 hrs vs DMSO", "experimental": "(§2) Methods: SURF1, POLG, and NGLY1 patient cells were supplemented with PT1 or DMSO (untreated control) for 48 hrs (n=3) and ATP levels measured by the CellTiter-Glo ATP Assay or for 72 hrs (n=3) and ROS levels were measured by the CellROX Deep Red Flow Cytometry Assay. Results were normalized to total protein concentration. Data are represented as the mean±standard error of the mean. Statistical significance was measured to p<0.05."}, "[10]": {"tested_on": "POLG deficient fibroblasts", "assay": "ATP levels, CellTiter-Glo ATP Assay", "assay_type": "cell-based, human", "conditions": "PT1 48 hrs vs DMSO", "experimental": "as §2"}, "[11]": {"tested_on": "SURF1 deficient fibroblasts", "assay": "ATP levels, CellTiter-Glo ATP Assay", "assay_type": "cell-based, human", "conditions": "PT1 48 hrs vs DMSO", "experimental": "as §2"}, "[12]": {"tested_on": "NGLY1 deficient fibroblasts", "assay": "Lipofuscin levels", "assay_type": "cell-based, human", "conditions": "FIG. 8B"}, "ischemic stroke model": {"tested_on": "ischemic stroke model", "assay": "Ischemic stroke model, transient middle cerebral artery occlusion, TTC staining", "assay_type": "in vivo, mice", "conditions": "PT1 100 mg/kg IP vs vehicle", "experimental": "Methods: To generate an ischemic stroke model, ischemic lesions were induced by transiently occluding the middle cerebral artery for 45 minutes, followed by reperfusion. Mice were then injected intraperitoneally with either 100 mg/kg of PT1 or vehicle in two doses, 1 hour and 24 hours post-occlusion, and sacrificed one hour later for terminal tissue collection. Isolated brains were placed in cold saline for 20 minutes, sliced in seven coronal slices (2 mm thick), and stained in a 1.0% 2,3,5-triphenyltetrazolium chloride (TTC) solution in saline at 37° C. for 30 minutes. The stained brain tissues were fixed in 10% formalin in phosphate-buffered saline. The images were captured using a CCD camera (Panasonic Corporation, Japan) and the unstained damaged areas were defined as infarcted tissue and were quantified using Image Pro Plus 4.1 software (Media Cybernetics, Silver Spring, MD)."}}, "note": "Entries after “also recorded” stand apart in the source; their conditions may differ.", "data": [{"smiles": "Cc1cc(-c2ccc(C=C3SC(=S)N(c4ccc(Cl)c(C(=O)O)c4)C3=O)o2)c([N+](=O)[O-])cc1C", "note": "[PT1]", "values": [{"measurement": "cellular morphology", "setting": "CI-deficient fibroblasts", "value": "cell morphology improved"}, {"measurement": "cellular morphology", "setting": "[1]", "value": "cell morphology improved"}, {"measurement": "cellular morphology", "setting": "[2]", "value": "cell morphology improved"}, {"measurement": "cellular morphology", "setting": "[3]", "value": "cell morphology improved"}, {"measurement": "cellular morphology", "setting": "[4]", "value": "improved cellular morphology; also recorded: cell morphology improved"}, {"measurement": "decrease in pAMPK levels", "setting": "pAMPK [5]", "value": 63, "unit": "%"}, {"measurement": "cell viability", "setting": "[6]", "value": "increased viability"}, {"measurement": "time of peak pAMPK levels post PT1 treatment", "setting": "pAMPK [7]", "value": 24, "unit": "hours"}, {"measurement": "time of return of pAMPK levels to baseline", "setting": "pAMPK [7]", "value": 48, "unit": "hours"}, {"measurement": "time by which pAMPK levels increase post PT1 treatment", "setting": "pAMPK [7]; pAMPK normalized to actin", "value": "≤ 2", "unit": "hours"}, {"measurement": "improvement in basal respiration (basal OCR)", "setting": "[8]", "value": 16, "unit": "%"}, {"measurement": "increase in ATP production / content", "setting": "[9]", "value": 40, "unit": "%"}, {"measurement": "increase in ATP production / content", "setting": "[10]", "value": 36, "unit": "%"}, {"measurement": "increase in ATP production / content", "setting": "[11]", "value": 35, "unit": "%"}, {"measurement": "reduction of lipofuscin levels", "setting": "[12]", "value": "approximately 36%"}, {"measurement": "percent of infarct tissue in brain", "setting": "ischemic stroke model; FIG. 10A", "value": "marked improvement"}, {"measurement": "infarcted regions in TTC-stained brain slices", "setting": "ischemic stroke model; FIGS. 10B-10C, 100 mg/kg", "value": "much lower amounts of ischemic tissue; also recorded: reduction in size of the infarcted regions"}]}]}
